According to patent US6365628B1 (Thia Medica AS, priority 1998, dated 2002):

Legend:
male Wistar rats = assay: Hepatic levels of triacylglycerol in rats fed fatty acid analogues (Example 17); format: in vivo, rat; conditions: no prefeeding
Description: Even an increased hepatic level of triacylglycerol may be relieved by TTA. Feeding rats with an inhibitor of fatty acid oxidation will increase the level of hepatic triacylglycerol resulting in fatty liver. Tetradecyl-4-thia propionic acid (TTP) is a fatty acid analogue with a sulphur atom in the 4 position. This analogue inhibits the β-oxidation of fatty acids due to the formation of a mitochondrial inhibitor. Feeding rats with this analogue results in the formation of fatty. However, if the rats are fed with a combination of TTA and TTP, the formation of fatty liver is avoided (Table 8). This provides evidence that TTA may be used for the treatment of conditions with an increased hepatic level of triacylglycerol. Male Wistar rats had free access to water and rat maintenance chow. They were fed palmitic acid or fatty acid analogues suspended in 0.5% CMC for 6 days. In some experiments TTA or TTP were fed for 3 days before feeding both for 6 days. At the end of the experiment the rats were fasted overnight, killed, the liver removed and homogenized. Triacylglycerol was measured in the homogenate.

[1] = test system: chinese hamster ovary cells; assay: Chromosomal aberrations in cultured chinese hamster ovary cells; format: cell-based; conditions: doses tested 12-140 mg/ml
Salmonella typhimurium = assay: Test for mutagenic activity in Salmonella typhimurium strains; format: cell-based; conditions: 3-1000 mg/plate (TTA) 2-5000 mg/plate (TSA)
Description: (§1) Tests for mutagenic activity have been performed by Covance Laboratories Limited, England. […] Furthermore, TTA was not mutagenic when tested in mouse lymphoma cells […] L5178Y.

Wistar rats = assay: Lipid lowering effect in normal Wistar rats (Example 4); format: in vivo, rat; conditions: gavage once daily for 7 days
Procedure: Phospholipids were measured by the enzymatic method of bioMérieux, Marcy-l {grave over ( )}Etoile, France, Triacylglycerol by the Technicon Method no. SA4-0324L90, USA and Cholesterol by the Technicon Method no. SA4-0305L90, USA.
Male Wistar rats, weighing 180-200 g at the start of the experiment, were housed individually in metal wire cages in a room maintained at 12 h light-dark cycles and a constant temperature of 20±3° C. The animals were acclimatised for one week under these conditions before the start of the experiments.
TTA, TSA and eicosapentaenoic acid (EPA) were suspended in 0.5% (w/v) carboxymethyl cellulose (CMC). Six animals were used for each treatment, and a 0.5% CMC solution was administrated to the rats as control. After administration of the test compound, the rats were fasted for 12 hours and anaesthetised with haloethan. The EPA and the fatty acid derivatives were administered by gastric intubation (gavage) once daily for 7 days. Blood samples were collected by cardiac puncture, and lipid concentrations in plasma were determined as outlined in the method section.

Escherichia coli = assay: Test for mutagenic activity in Escherichia coli strains; format: cell-based; conditions: 3-1000 mg/plate (TTA) 2-5000 mg/plate (TSA)
Description: as §1

[2] = test system: rat liver mitochondrial β-oxidation; assay: Mitochondrial β-oxidation in rat liver, fatty acid analogues with S in different positions (Example 18); format: in vivo; conditions: [1-14C]-palmitoyl-L-carnitine as substrate
Procedure: Freshly isolated livers from individual old Zucker rats, were homogenised in ice-cold sucrose buffer (0.25 M sucrose, 10 mM HEPES (pH 7.4) and 2 mM EDTA). Post-nuclear and mitochondrial fractions were prepared using preparative differential centrifugation according to DeDuve et al. (De Duve, C., et al., Biochem. J., 60, 604-617 1955.) Modifications, purity and yield were as described earlier (Garras, A., et al., Biochim. Biophys. Acta, 1255, 154-160 1995.). Acid soluble products were measured in post-nuclear and mitochondrial enriched fractions, using [1-^14C]-palmitoyl-CoA and [1-^14C]-palmitoyl-L-carnitine (Radiochemical Centre, Amersham, England) as substrates as described earlier (Willumsen, N., et al., J. Lipid Res., 34, 13-22 1993. Carnitine palmitoyltransferase-I and -II activities were measured in the post-nuclear and mitochondrial fractions essentially as described by Bremer (Bremer, J., Biochim. Biophys. Acta, 665, 628-631 1981.) and 3-hydroxy-3-methylglutharyl-CoA synthase was measured according to Clinkenbeard et al. (Clinkenbeard, K. D., et al., J. Biol. Chem, 250, 3108-3116 1975.) in the mitochondrial fractions.
The mitochondrial β-oxidation is measured as in example 16 with the use of [1-^14C]-palmitoyl-L-carnitine as substrates.

[3] = dose 1500 mg/day/kg body weight

CCCCCCCCCCCCCCSCCC(=O)O
Hepatic triacylglycerol TG (μmol/g) (male Wistar rats; TTP 300 mg/kg/day for 6 days): 95,4 ± 14,7 μmol/g

Tetradecylselenoacetic acid [TSA]
Chromosomal aberrations in cultured chinese hamster ovary cells [1]: no aberrations were induced | Induction of mutations in strains of Salmonella typhimurium (Salmonella typhimurium): did not induce mutations | Plasma lipids (% reduction of control) cholesterol (Wistar rats; dose 15 mg/day/kg body weight): 20 % reduction of control | Plasma lipids (% reduction of control) triglycerides (Wistar rats; dose 15 mg/day/kg body weight): 25 % reduction of control | Induction of mutations in strains of Escherichia coli (Escherichia coli): did not induce mutations

CCCCCCCCCCCCCCCC(=O)O [Palm, palmitic acid]
Mitochondrial β-oxidation activity (nmol/min/mg protein) [2]: 0,47 ± 0,06 nmol/min/mg protein | Hepatic triacylglycerol TG (μmol/g) (male Wistar rats; palmitic acid for 6 days): 10,9 μmol/g

CC/C=C\C/C=C\C/C=C\C/C=C\C/C=C\CCCC(=O)O [EPA, eicosapentaenoic acid, reference compound]
Plasma lipids (% reduction of control) cholesterol (Wistar rats; [3]): 18 % reduction of control | Plasma lipids (% reduction of control) triglycerides (Wistar rats; [3]): 20 % reduction of control
